From patent US20240025884A1 (Dong-A ST Co., Ltd., priority 2022, published 2024)
pIC50: −log10 of the molar value.

target: GCN2 (Homo sapiens (Human), UniProt Q9P2K8); assay: GCN2 Biochemical Assay (TR-FRET, GFP-eIF2S1 substrate phosphorylation); settings: read-out: IC50 (GCN2 Inhibitory Activity)
Procedure, shortened: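 TR-FRET readout (Ex 340, Em 490/520 nm) after 2–3 h with Tb-labelled phospho-eIF2S1 antibody in stop mix, following a 70 min room-temperature kinase step. Reaction: in-house GCN2, GFP-eIF2S1, ATP, tRNA in Tris pH 7.5 (2× stocks 1.6 nM, 50 nM, 0.2 mM); compounds tested at 10 concentrations, with a phospho-substrate artifact counter-plate.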

Sequence of GCN2 (Q9P2K8 whole entry): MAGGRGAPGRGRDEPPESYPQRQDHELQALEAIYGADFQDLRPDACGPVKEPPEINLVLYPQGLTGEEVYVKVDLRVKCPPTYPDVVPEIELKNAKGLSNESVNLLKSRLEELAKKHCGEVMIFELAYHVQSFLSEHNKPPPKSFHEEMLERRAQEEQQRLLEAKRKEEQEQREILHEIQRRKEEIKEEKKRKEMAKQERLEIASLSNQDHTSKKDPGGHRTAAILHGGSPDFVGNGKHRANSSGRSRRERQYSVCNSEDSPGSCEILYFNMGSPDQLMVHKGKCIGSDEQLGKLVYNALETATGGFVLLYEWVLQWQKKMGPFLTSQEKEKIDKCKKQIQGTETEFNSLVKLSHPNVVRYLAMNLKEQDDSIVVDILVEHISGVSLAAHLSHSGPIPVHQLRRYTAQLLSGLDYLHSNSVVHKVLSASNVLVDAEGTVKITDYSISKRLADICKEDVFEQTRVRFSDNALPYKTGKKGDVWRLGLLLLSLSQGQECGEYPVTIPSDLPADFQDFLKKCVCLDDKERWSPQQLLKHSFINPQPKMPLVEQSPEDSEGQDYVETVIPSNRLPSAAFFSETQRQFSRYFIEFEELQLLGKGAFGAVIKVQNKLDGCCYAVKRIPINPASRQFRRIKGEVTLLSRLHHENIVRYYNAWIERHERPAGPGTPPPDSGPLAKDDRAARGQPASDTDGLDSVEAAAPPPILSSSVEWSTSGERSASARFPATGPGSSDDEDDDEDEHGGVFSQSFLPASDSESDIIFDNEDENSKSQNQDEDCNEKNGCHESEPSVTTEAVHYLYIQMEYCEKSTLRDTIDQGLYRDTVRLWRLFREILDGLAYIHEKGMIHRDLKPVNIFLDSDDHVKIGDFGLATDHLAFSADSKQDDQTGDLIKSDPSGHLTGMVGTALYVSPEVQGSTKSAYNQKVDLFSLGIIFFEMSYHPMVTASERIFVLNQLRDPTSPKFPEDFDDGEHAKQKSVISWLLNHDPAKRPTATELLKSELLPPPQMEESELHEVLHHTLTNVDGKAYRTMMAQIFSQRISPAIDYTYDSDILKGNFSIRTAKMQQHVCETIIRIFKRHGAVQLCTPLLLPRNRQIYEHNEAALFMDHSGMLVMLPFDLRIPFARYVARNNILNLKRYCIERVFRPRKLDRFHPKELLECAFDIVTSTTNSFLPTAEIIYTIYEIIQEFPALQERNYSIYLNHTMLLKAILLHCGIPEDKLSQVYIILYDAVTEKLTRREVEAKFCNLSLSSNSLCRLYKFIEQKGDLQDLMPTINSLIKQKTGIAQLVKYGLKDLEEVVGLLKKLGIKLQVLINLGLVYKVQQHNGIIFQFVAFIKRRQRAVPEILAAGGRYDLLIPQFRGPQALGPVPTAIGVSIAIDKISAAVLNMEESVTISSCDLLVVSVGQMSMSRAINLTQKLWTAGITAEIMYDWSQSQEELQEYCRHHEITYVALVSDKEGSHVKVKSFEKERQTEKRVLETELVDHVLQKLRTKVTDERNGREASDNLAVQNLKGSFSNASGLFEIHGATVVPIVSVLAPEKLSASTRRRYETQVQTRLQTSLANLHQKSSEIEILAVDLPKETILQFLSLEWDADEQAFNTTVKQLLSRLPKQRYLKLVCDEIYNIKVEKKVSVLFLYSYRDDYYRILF

| SMILES | pIC50 |
| --- | --- |
| Cc1cnc(Nc2cc(C)n(C)n2)nc1-c1c[nH]c2c(NC(=O)CN3CC[C@H](Oc4cc(NCCCN(C)C)ncn4)C3)cccc12 [Example 148, (S)-N-(3-(2-((1,5-dimethyl-1H-pyrazol-3-yl)amino)-5-methylpyrimidin-4-yl)-1H-indol-7-yl)-2-(3-((6-((3-(dimethylamino)propyl)amino)pyrimidin-4-yl)oxy)pyrrolidin-1-yl)acetamide] | > 8.00 |
| Cc1cnc(Nc2cc(C)n(C)n2)nc1-c1c[nH]c2c(NC(=O)CN3CC[C@H](Oc4cc(NCc5ccccc5)ncn4)C3)cccc12 [Example 149, (S)-2-(3-((6-(benzylamino)pyrimidin-4-yl)oxy)pyrrolidin-1-yl)-N-(3-(2-((1,5-dimethyl-1H-pyrazol-3-yl)amino)-5-methylpyrimidin-4-yl)-1H-indol-7-yl)acetamide] | > 8.00 |
| Cc1cnc(Nc2cc(C)n(C)n2)nc1-c1c[nH]c2c(NC(=O)CN3CC[C@H](Oc4cc(NCCc5ccccc5)ncn4)C3)cccc12 [Example 150, (S)-N-(3-(2-((1,5-dimethyl-1H-pyrazol-3-yl)amino)-5-methylpyrimidin-4-yl)-1H-indol-7-yl)-2-(3-((6-(phenethylamino)pyrimidin-4-yl)oxy)pyrrolidin-1-yl)acetamide] | 7.00 to 8.00 |
| Cc1cnc(Nc2cc(C)n(C)n2)nc1-c1c[nH]c2c(NC(=O)CN3CC[C@H](Oc4cc(NC5CC5)ncn4)C3)cccc12 [Example 151, (S)-2-(3-((6-(cyclopropylamino)pyrimidin-4-yl)oxy)pyrrolidin-1-yl)-N-(3-(2-((1,5-dimethyl-1H-pyrazol-3-yl)amino)-5-methylpyrimidin-4-yl)-1H-indol-7-yl)acetamide] | > 8.00 |
| Cc1cnc(Nc2cc(C)n(C)n2)nc1-c1c[nH]c2c(NC(=O)CN3CC[C@H](Oc4cc(NC5CCCCC5)ncn4)C3)cccc12 [Example 152, (S)-2-(3-((6-(cyclohexylamino)pyrimidin-4-yl)oxy)pyrrolidin-1-yl)-N-(3-(2-((1,5-dimethyl-1H-pyrazol-3-yl)amino)-5-methylpyrimidin-4-yl)-1H-indol-7-yl)acetamide] | 7.00 to 8.00 |
| Cc1cnc(Nc2cc(C)n(C)n2)nc1-c1c[nH]c2c(NC(=O)CN3CC[C@H](Oc4cc(N(C)C)ncn4)C3)cccc12 [Example 153, (S)-N-(3-(2-((1,5-dimethyl-1H-pyrazol-3-yl)amino)-5-methylpyrimidin-4-yl)-1H-indol-7-yl)-2-(3-((6-(dimethylamino)pyrimidin-4-yl)oxy)pyrrolidin-1-yl)acetamide] | > 8.00 |
| CCN(C)c1cc(O[C@H]2CCN(CC(=O)Nc3cccc4c(-c5nc(Nc6cc(C)n(C)n6)ncc5C)c[nH]c34)C2)ncn1 [Example 154, (S)-N-(3-(2-((1,5-dimethyl-1H-pyrazol-3-yl)amino)-5-methylpyrimidin-4-yl)-1H-indol-7-yl)-2-(3-((6-(ethyl(methyl)amino)pyrimidin-4-yl)oxy)pyrrolidin-1-yl)acetamide] | > 8.00 |
| CCN(CC)c1cc(O[C@H]2CCN(CC(=O)Nc3cccc4c(-c5nc(Nc6cc(C)n(C)n6)ncc5C)c[nH]c34)C2)ncn1 [Example 155, (S)-2-(3-((6-(diethylamino)pyrimidin-4-yl)oxy)pyrrolidin-1-yl)-N-(3-(2-((1,5-dimethyl-1H-pyrazol-3-yl)amino)-5-methylpyrimidin-4-yl)-1H-indol-7-yl)acetamide] | 7.00 to 8.00 |
| CCCN(CC)c1cc(O[C@H]2CCN(CC(=O)Nc3cccc4c(-c5nc(Nc6cc(C)n(C)n6)ncc5C)c[nH]c34)C2)ncn1 [Example 156, (S)-N-(3-(2-((1,5-dimethyl-1H-pyrazol-3-yl)amino)-5-methylpyrimidin-4-yl)-1H-indol-7-yl)-2-(3-((6-(ethyl(propyl)amino)pyrimidin-4-yl)oxy)pyrrolidin-1-yl)acetamide] | 7.00 to 8.00 |
| CCCCN(CC)c1cc(O[C@H]2CCN(CC(=O)Nc3cccc4c(-c5nc(Nc6cc(C)n(C)n6)ncc5C)c[nH]c34)C2)ncn1 [Example 157, (S)-2-(3-((6-(butyl(ethyl)amino)pyrimidin-4-yl)oxy)pyrrolidin-1-yl)-N-(3-(2-((1,5-dimethyl-1H-pyrazol-3-yl)amino)-5-methylpyrimidin-4-yl)-1H-indol-7-yl)acetamide] | 7.00 to 8.00 |
| Cc1cnc(Nc2cc(C)n(C)n2)nc1-c1c[nH]c2c(NC(=O)CN3CC[C@H](Oc4cc(N5CCCC5)ncn4)C3)cccc12 [Example 158, (S)-N-(3-(2-((1,5-dimethyl-1H-pyrazol-3-yl)amino)-5-methylpyrimidin-4-yl)-1H-indol-7-yl)-2-(3-((6-(pyrrolidin-1-yl)pyrimidin-4-yl)oxy)pyrrolidin-1-yl)acetamide] | > 8.00 |
| Cc1cnc(Nc2cc(C)n(C)n2)nc1-c1c[nH]c2c(NC(=O)CN3CC[C@H](Oc4cc(N5CCC(O)C5)ncn4)C3)cccc12 (stereo partly drawn) [Example 159, N-(3-(2-((1,5-dimethyl-1H-pyrazol-3-yl)amino)-5-methylpyrimidin-4-yl)-1H-indol-7-yl)-2-((3S)-3-((6-(3-hydroxypyrrolidin-1-yl)pyrimidin-4-yl)oxy)pyrrolidin-1-yl)acetamide] | > 8.00 |
| Cc1cnc(Nc2cc(C)n(C)n2)nc1-c1c[nH]c2c(NC(=O)CN3CC[C@H](Oc4cc(N5CC[C@@H](O)C5)ncn4)C3)cccc12 [Example 160, N-(3-(2-((1,5-dimethyl-1H-pyrazol-3-yl)amino)-5-methylpyrimidin-4-yl)-1H-indol-7-yl)-2-((S)-3-((6-((R)-3-hydroxypyrrolidin-1-yl)pyrimidin-4-yl)oxy)pyrrolidin-1-yl)acetamide] | > 8.00 |
| Cc1cnc(Nc2cc(C)n(C)n2)nc1-c1c[nH]c2c(NC(=O)CN3CC[C@H](Oc4cc(N5CC[C@H](O)C5)ncn4)C3)cccc12 [Example 161, N-(3-(2-((1,5-dimethyl-1H-pyrazol-3-yl)amino)-5-methylpyrimidin-4-yl)-1H-indol-7-yl)-2-((S)-3-((6-((S)-3-hydroxypyrrolidin-1-yl)pyrimidin-4-yl)oxy)pyrrolidin-1-yl)acetamide] | > 8.00 |
| Cc1cnc(Nc2cc(C)n(C)n2)nc1-c1c[nH]c2c(NC(=O)CN3CC[C@H](Oc4cc(N5CCCCC5)ncn4)C3)cccc12 [Example 162, (S)-N-(3-(2-((1,5-dimethyl-1H-pyrazol-3-yl)amino)-5-methylpyrimidin-4-yl)-1H-indol-7-yl)-2-(3-((6-(piperidin-1-yl)pyrimidin-4-yl)oxy)pyrrolidin-1-yl)acetamide] | > 8.00 |
| Cc1cnc(Nc2cc(C)n(C)n2)nc1-c1c[nH]c2c(NC(=O)CN3CC[C@H](Oc4cc(N5CCC(O)CC5)ncn4)C3)cccc12 [Example 163, (S)-N-(3-(2-((1,5-dimethyl-1H-pyrazol-3-yl)amino)-5-methylpyrimidin-4-yl)-1H-indol-7-yl)-2-(3-((6-(4-hydroxypiperidin-1-yl)pyrimidin-4-yl)oxy)pyrrolidin-1-yl)acetamide] | > 8.00 |
| Cc1cnc(Nc2cc(C)n(C)n2)nc1-c1c[nH]c2c(NC(=O)CN3CC[C@H](Oc4cc(N5CCOCC5)ncn4)C3)cccc12 [Example 164, (S)-N-(3-(2-((1,5-dimethyl-1H-pyrazol-3-yl)amino)-5-methylpyrimidin-4-yl)-1H-indol-7-yl)-2-(3-((6-morpholinopyrimidin-4-yl)oxy)pyrrolidin-1-yl)acetamide] | > 8.00 |
